Experimental data taken from the kinase profiling compilation of Christmann-Franck et al. (2016).

How the values were obtained:
Assay in all cases: radiometric filter-binding kinase assay
[1] = molecular target: MYLK (human) (UniProt Q15746)
[2] = molecular target: MAPKAPK3 (human) (UniProt Q16644)
[3] = molecular target: EEF2K (human) (UniProt O00418)
[4] = molecular target: CSNK2A1 (human) (UniProt P68400)
[5] = molecular target: NTRK1 (human) (UniProt P04629)
[6] = molecular target: PRKCZ (human) (UniProt Q05513)
[7] = molecular target: GSK3B (human) (UniProt P49841)
[8] = molecular target: FGFR1 (human) (UniProt P11362)
[9] = molecular target: PHKG1 (human) (UniProt Q16816)
[10] = molecular target: EPHB3 (human) (UniProt P54753)
Sequence of EPHB3 (human) (P54753 whole entry, looked up): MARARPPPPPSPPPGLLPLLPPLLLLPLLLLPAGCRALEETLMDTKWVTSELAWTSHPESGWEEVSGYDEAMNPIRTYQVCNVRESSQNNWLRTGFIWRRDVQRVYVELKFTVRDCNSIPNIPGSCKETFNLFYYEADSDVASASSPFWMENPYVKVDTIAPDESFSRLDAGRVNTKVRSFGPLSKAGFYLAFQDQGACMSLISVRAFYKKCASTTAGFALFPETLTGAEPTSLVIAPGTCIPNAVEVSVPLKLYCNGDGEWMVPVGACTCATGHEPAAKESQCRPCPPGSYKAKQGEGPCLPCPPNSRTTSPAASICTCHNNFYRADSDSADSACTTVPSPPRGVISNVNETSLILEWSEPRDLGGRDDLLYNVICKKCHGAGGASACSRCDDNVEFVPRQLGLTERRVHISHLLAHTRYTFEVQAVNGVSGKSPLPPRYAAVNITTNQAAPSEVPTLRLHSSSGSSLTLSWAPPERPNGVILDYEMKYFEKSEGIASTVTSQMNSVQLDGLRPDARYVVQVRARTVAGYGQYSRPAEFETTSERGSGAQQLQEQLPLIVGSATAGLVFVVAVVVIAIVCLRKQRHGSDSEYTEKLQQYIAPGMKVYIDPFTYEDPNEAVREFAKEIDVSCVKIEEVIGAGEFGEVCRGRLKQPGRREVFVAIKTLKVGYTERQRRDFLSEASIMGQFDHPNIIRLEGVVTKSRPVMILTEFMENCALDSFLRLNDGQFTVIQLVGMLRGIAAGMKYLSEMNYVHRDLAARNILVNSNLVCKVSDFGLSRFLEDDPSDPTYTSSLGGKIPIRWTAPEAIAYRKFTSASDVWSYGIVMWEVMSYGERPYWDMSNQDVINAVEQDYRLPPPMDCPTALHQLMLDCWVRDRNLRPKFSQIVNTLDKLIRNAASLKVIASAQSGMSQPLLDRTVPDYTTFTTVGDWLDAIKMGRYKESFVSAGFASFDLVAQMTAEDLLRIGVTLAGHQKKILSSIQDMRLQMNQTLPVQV

[11] = tested on: PRKAA1 or PRKAA2 (rat); conditions: accession and sequence are those of the human protein
[12] = molecular target: RPS6KA1 KD1 KD2 (human) (UniProt Q15418)
[13] = molecular target: MAP3K9 (human) (UniProt P80192)
[14] = molecular target: MAPK1 (human) (UniProt P28482)
[15] = molecular target: ERBB4 (human) (UniProt Q15303)
[16] = molecular target: MARK4 (human) (UniProt Q96L34)
[17] = molecular target: AURKB (human) (UniProt Q96GD4)
Sequence of AURKB (human) (Q96GD4 whole entry, looked up): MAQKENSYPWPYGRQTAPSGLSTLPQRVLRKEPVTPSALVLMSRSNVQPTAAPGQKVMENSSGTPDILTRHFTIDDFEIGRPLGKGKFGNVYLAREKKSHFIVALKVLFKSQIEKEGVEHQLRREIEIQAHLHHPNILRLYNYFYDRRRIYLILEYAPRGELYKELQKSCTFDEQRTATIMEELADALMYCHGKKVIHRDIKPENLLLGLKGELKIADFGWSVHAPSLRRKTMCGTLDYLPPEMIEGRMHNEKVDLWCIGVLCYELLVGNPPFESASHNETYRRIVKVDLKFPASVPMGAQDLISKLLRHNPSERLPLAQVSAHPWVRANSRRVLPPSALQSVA

[18] = molecular target: PRKACA (human) (UniProt P17612)
[19] = molecular target: CDK2 CCNA2 (human) (UniProt P20248+P24941)
[20] = molecular target: TTK (human) (UniProt P33981)
[21] = molecular target: CSK (human) (UniProt P41240)
[22] = molecular target: CHEK2 (human) (UniProt O96017)
[23] = molecular target: SRC (human) (UniProt P12931)
[24] = tested on: LCK (mouse); conditions: accession and sequence are those of the human protein
[25] = molecular target: DAPK1 (human) (UniProt P53355)
[26] = molecular target: MKNK1 (human) (UniProt Q9BUB5)
[27] = molecular target: MINK1 (human) (UniProt Q8N4C8)
Sequence of MINK1 (human) (Q8N4C8 whole entry, looked up): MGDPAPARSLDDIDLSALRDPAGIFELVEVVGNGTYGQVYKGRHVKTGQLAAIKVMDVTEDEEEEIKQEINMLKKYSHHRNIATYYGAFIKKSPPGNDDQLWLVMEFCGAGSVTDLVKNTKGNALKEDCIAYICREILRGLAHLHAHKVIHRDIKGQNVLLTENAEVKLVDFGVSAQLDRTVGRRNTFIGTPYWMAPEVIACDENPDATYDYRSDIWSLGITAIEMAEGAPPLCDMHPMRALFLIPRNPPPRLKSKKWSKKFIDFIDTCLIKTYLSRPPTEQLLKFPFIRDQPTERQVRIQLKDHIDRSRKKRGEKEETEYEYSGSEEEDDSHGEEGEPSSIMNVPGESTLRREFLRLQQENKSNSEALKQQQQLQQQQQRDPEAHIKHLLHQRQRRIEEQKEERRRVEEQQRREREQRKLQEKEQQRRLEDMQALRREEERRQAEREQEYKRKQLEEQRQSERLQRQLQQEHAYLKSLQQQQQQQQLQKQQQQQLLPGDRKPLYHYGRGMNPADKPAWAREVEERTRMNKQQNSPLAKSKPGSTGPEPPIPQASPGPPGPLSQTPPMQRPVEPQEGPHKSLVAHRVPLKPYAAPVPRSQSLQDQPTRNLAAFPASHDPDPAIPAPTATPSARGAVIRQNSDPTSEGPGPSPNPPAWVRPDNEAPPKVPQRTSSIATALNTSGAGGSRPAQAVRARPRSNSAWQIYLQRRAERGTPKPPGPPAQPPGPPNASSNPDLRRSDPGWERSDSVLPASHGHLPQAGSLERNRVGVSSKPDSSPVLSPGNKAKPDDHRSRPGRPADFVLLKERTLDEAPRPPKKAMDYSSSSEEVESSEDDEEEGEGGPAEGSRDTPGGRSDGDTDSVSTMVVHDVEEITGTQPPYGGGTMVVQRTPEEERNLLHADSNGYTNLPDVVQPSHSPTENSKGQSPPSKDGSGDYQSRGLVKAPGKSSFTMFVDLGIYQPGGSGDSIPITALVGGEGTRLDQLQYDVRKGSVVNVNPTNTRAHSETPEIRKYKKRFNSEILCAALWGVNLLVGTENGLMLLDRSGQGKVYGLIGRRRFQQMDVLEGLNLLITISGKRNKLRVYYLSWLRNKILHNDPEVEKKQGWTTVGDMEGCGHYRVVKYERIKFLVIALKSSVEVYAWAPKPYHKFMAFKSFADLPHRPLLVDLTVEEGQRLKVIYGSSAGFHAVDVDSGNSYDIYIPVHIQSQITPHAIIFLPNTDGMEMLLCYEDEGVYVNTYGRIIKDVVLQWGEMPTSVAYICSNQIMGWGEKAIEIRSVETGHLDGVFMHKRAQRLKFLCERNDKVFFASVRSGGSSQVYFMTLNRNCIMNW

[28] = molecular target: INSRR (human) (UniProt P14616)
[29] = tested on: ROCK2 (rat); conditions: accession and sequence are those of the human protein
[30] = molecular target: IKBKB (human) (UniProt O14920)
Sequence of IKBKB (human) (O14920 whole entry, looked up): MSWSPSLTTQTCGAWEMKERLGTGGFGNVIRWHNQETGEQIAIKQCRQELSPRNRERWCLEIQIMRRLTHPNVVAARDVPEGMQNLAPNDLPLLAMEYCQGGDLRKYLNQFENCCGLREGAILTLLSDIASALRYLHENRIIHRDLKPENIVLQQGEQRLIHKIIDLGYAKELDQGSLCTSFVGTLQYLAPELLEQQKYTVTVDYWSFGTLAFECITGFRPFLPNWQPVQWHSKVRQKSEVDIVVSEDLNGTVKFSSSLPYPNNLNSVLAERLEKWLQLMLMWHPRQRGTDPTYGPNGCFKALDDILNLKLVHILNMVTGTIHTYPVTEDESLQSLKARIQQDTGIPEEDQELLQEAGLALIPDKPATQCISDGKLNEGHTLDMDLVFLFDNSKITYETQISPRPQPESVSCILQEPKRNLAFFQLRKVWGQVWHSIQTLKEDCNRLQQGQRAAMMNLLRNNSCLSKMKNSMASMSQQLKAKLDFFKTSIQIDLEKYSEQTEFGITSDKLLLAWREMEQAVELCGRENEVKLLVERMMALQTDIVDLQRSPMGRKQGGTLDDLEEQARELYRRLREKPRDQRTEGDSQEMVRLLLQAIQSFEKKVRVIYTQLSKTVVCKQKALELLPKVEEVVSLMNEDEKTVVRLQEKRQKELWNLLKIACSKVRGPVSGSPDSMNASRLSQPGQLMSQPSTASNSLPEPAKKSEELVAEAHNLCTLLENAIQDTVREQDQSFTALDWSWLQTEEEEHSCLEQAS

[31] = molecular target: MELK (human) (UniProt Q14680)
[32] = molecular target: MAPK13 (human) (UniProt O15264)
[33] = molecular target: MKNK2 (human) (UniProt Q9HBH9)
[34] = molecular target: STK11 CAB39 STRADA (human) (UniProt Q9Y376+Q7RTN6+Q15831)

Sequence of NTRK1 (human) (P04629 whole entry, looked up): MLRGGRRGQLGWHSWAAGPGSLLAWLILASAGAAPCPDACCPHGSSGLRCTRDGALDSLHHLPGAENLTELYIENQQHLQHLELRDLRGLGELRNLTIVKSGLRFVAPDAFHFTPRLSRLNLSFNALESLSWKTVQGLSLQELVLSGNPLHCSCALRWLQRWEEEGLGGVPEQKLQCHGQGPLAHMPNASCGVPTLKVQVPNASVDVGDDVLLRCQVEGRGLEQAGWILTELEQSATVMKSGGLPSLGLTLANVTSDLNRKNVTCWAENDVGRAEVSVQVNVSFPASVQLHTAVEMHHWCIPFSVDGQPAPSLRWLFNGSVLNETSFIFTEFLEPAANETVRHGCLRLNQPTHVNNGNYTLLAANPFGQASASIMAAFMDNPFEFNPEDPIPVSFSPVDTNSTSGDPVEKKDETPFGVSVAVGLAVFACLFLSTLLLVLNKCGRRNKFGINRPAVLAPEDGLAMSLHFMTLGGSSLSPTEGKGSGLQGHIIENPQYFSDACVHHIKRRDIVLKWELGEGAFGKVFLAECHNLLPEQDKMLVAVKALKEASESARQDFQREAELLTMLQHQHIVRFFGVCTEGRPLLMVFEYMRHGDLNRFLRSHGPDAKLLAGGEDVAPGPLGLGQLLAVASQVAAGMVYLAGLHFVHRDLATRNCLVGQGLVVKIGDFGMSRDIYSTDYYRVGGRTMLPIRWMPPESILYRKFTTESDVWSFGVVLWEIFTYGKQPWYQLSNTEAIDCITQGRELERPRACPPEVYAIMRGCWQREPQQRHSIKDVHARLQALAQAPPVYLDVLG
Sequence of CSNK2A1 (human) (P68400 whole entry, looked up): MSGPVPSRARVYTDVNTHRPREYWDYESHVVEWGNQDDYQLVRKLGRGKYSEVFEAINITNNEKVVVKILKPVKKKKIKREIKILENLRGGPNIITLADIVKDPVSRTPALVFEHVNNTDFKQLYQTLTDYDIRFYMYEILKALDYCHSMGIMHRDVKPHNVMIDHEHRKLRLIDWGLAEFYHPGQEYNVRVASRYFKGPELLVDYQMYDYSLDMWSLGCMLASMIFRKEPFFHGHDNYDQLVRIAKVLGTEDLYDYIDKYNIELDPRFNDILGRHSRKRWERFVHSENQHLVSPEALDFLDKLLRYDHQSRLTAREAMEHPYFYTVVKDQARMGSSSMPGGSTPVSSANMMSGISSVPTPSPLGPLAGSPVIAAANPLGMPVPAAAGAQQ
Sequence of MAPKAPK3 (human) (Q16644 whole entry, looked up): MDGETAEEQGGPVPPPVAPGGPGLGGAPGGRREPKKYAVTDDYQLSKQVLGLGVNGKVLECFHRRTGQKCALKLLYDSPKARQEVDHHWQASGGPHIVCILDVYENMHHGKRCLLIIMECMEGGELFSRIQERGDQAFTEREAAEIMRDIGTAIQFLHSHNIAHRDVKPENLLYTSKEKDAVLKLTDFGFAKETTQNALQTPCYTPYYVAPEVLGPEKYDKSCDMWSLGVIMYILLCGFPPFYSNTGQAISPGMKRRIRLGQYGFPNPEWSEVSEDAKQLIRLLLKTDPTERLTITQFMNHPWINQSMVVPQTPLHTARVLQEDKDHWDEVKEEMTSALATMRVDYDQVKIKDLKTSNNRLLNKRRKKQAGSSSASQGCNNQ

`NC(=O)c1cc2c(-c3cccc(-c4ccccc4)c3)cnc(N)c2s1` was tested, and the residual activity ([1]; compound 0.1 µM) was 98%, the residual activity ([1]; compound 1.0 µM) was 53% and the residual activity ([1]; compound 10.0 µM) was 17%. It also gave a residual activity ([2]; compound 0.1 µM) of 93%, a residual activity ([2]; compound 1.0 µM) of 84% and a residual activity ([2]; compound 10.0 µM) of 69%. The residual activity ([3]; compound 0.1 µM) was 124%, the residual activity ([3]; compound 1.0 µM) was 114% and the residual activity ([3]; compound 10.0 µM) was 117%. The residual activity ([4]; compound 0.1 µM) was 91%, the residual activity ([4]; compound 1.0 µM) was 94% and the residual activity ([4]; compound 10.0 µM) was 100%. It also gave a residual activity ([5]; compound 0.1 µM) of 92%, a residual activity ([5]; compound 1.0 µM) of 73% and a residual activity ([5]; compound 10.0 µM) of 28%. It also gave a residual activity ([6]; compound 0.1 µM) of 108%, a residual activity ([6]; compound 1.0 µM) of 93% and a residual activity ([6]; compound 10.0 µM) of 82%. The residual activity ([7]; compound 0.1 µM) was 68%, the residual activity ([7]; compound 1.0 µM) was 16% and the residual activity ([7]; compound 10.0 µM) was 4%. The residual activity ([8]; compound 0.1 µM) was 104%, the residual activity ([8]; compound 1.0 µM) was 96% and the residual activity ([8]; compound 10.0 µM) was 85%. For the same compound, the residual activity ([9]; compound 0.1 µM) was 104%, the residual activity ([9]; compound 1.0 µM) was 92% and the residual activity ([9]; compound 10.0 µM) was 55%. The residual activity ([10]; compound 0.1 µM) was 128%, the residual activity ([10]; compound 1.0 µM) was 113% and the residual activity ([10]; compound 10.0 µM) was 92%. It also gave a residual activity ([11]; compound 0.1 µM) of 99%, a residual activity ([11]; compound 1.0 µM) of 95% and a residual activity ([11]; compound 10.0 µM) of 68%. The residual activity ([12]; compound 0.1 µM) was 92%, the residual activity ([12]; compound 1.0 µM) was 65% and the residual activity ([12]; compound 10.0 µM) was 31%. For the same compound, the residual activity ([13]; compound 0.1 µM) was 54%, the residual activity ([13]; compound 1.0 µM) was 18% and the residual activity ([13]; compound 10.0 µM) was 6%. The residual activity ([14]; compound 0.1 µM) was 81%, the residual activity ([14]; compound 1.0 µM) was 35% and the residual activity ([14]; compound 10.0 µM) was 6%. For the same compound, the residual activity ([15]; compound 1.0 µM) was 40%, the residual activity ([15]; compound 10.0 µM) was 17% and the residual activity ([16]; compound 0.1 µM) was 88%. It also gave a residual activity ([16]; compound 1.0 µM) of 82%, a residual activity ([16]; compound 10.0 µM) of 46% and a residual activity ([17]; compound 0.1 µM) of 110%. For the same compound, the residual activity ([17]; compound 1.0 µM) was 96%, the residual activity ([17]; compound 10.0 µM) was 43% and the residual activity ([18]; compound 0.1 µM) was 80%. For the same compound, the residual activity ([18]; compound 1.0 µM) was 103%, the residual activity ([18]; compound 10.0 µM) was 96% and the residual activity ([19]; compound 0.1 µM) was 97%. For the same compound, the residual activity ([19]; compound 1.0 µM) was 87%, the residual activity ([19]; compound 10.0 µM) was 35% and the residual activity ([20]; compound 0.1 µM) was 87%. The residual activity ([20]; compound 1.0 µM) was 55%, the residual activity ([20]; compound 10.0 µM) was 24% and the residual activity ([21]; compound 0.1 µM) was 90%. For the same compound, the residual activity ([21]; compound 1.0 µM) was 82%, the residual activity ([21]; compound 10.0 µM) was 58% and the residual activity ([22]; compound 0.1 µM) was 104%. The residual activity ([22]; compound 1.0 µM) was 37%, the residual activity ([22]; compound 10.0 µM) was 18% and the residual activity ([23]; compound 0.1 µM) was 100%. The residual activity ([23]; compound 1.0 µM) was 89%, the residual activity ([23]; compound 10.0 µM) was 108% and the residual activity ([24]; compound 0.1 µM) was 105%. It also gave a residual activity ([24]; compound 1.0 µM) of 88%, a residual activity ([24]; compound 10.0 µM) of 67% and a residual activity ([25]; compound 0.1 µM) of 76%. The residual activity ([25]; compound 1.0 µM) was 40%, the residual activity ([25]; compound 10.0 µM) was 10% and the residual activity ([26]; compound 0.1 µM) was 107%. It also gave a residual activity ([26]; compound 1.0 µM) of 114%, a residual activity ([26]; compound 10.0 µM) of 99% and a residual activity ([27]; compound 0.1 µM) of 58%. It also gave a residual activity ([27]; compound 1.0 µM) of 12%, a residual activity ([27]; compound 10.0 µM) of 4% and a residual activity ([28]; compound 0.1 µM) of 66%. For the same compound, the residual activity ([28]; compound 1.0 µM) was 26%, the residual activity ([28]; compound 10.0 µM) was 16% and the residual activity ([29]; compound 0.1 µM) was 75%. For the same compound, the residual activity ([29]; compound 1.0 µM) was 31%, the residual activity ([29]; compound 10.0 µM) was 7% and the residual activity ([30]; compound 0.1 µM) was 96%. It also gave a residual activity ([30]; compound 1.0 µM) of 81%, a residual activity ([30]; compound 10.0 µM) of 65% and a residual activity ([31]; compound 0.1 µM) of 99%. For the same compound, the residual activity ([31]; compound 1.0 µM) was 57%, the residual activity ([31]; compound 10.0 µM) was 15% and the residual activity ([32]; compound 0.1 µM) was 83%. For the same compound, the residual activity ([32]; compound 1.0 µM) was 77%, the residual activity ([32]; compound 10.0 µM) was 36% and the residual activity ([33]; compound 1.0 µM) was 91%. It also gave a residual activity ([33]; compound 10.0 µM) of 66%, a residual activity ([34]; compound 0.1 µM) of 105% and a residual activity ([34]; compound 1.0 µM) of 57%. The residual activity ([34]; compound 10.0 µM) was 23%.
